Test results published in patent publication US10766869B2, “Triazoles for the treatment of demyelinating dieases” (Vertex Pharmaceuticals Incorporated, priority 2015, dated 2020).

Test system: primary rat mixed cortical cells
Experiment: In vitro myelination assay (MBP positive myelin strands, fold myelin pixels above background)
Type: cell-based
Conditions: Rattus norvegicus, relative to baseline of no added compound, read-out: Fold myelin pixels above background; for fold induction at 1 µM: 1.0 μM compound; for fold induction at 10 µM: 10.0 μM compound
Summary of the method: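 P1 rat cortical cells (neurons, OPCs, oligodendrocytes, astrocytes, microglia) were cultured 14 days at 37 °C with compound, with half-medium changes containing 1× compound on days 6 and 10. Fixed cells were immunostained for MBP and imaged at 10×. Total MBP myelin pixels per well were expressed as fold above no-compound baseline at 1.0 μM and 10.0 μM.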

SMILES | fold induction at 1 µM | fold induction at 10 µM
Cc1cc(Nc2ncn(-c3ccccc3C)n2)cc(N2CCN(C3COC3)CC2)c1 [Compound 414, N-[3-methyl-5-[4-(oxetan-3-yl)piperazin-1-yl]phenyl]-1-(o-tolyl)-1,2,4-triazol-3-amine] | 1 to 10 | 100 to 1000
Cc1cc(Nc2ncn(-c3cc(F)cc(OC(C)C)c3)n2)cc(N2CCN(C3COC3)CC2)c1 [Compound 415, 1-(3-fluoro-5-isopropoxy-phenyl)-N-[3-methyl-5-[4-(oxetan-3-yl)piperazin-1-yl]phenyl]-1,2,4-triazol-3-amine] | 100 to 1000 | ≤ 1
Cc1cc(Nc2ncn(-c3cc(F)cc(F)c3)n2)cc(C2(O)CCN(C3COC3)C2)c1 (stereo not drawn) [Compound 416, 3-[3-[[1-(3,5-difluorophenyl)-1,2,4-triazol-3-yl]amino]-5-methyl-phenyl]-1-(oxetan-3-yl)pyrrolidin-3-ol] | 100 to 1000 | 10 to 100
CCc1cc(Nc2ncn(-c3cc(F)ccc3F)n2)cc(N2CCN(C3COC3)CC2)c1 [Compound 417, 1-(2,5-difluorophenyl)-N-[3-ethyl-5-[4-(oxetan-3-yl)piperazin-1-yl]phenyl]-1,2,4-triazol-3-amine] | 100 to 1000 | 1000 to 10000
Cc1cc(Nc2ncn(-c3ccnc(C)n3)n2)cc(N2CCN(C3COC3)CC2)c1 [Compound 418, N-[3-methyl-5-[4-(oxetan-3-yl)piperazin-1-yl]phenyl]-1-(2-methylpyrimidin-4-yl)-1,2,4-triazol-3-amine] | ≤ 1 | 10 to 100
Cc1cc(Nc2ncn(-c3ccccc3)n2)cc(N2CC(C)N(C)CC2C)c1 (stereo not drawn) [Compound 419, N-[3-methyl-5-(2,4,5-trimethylpiperazin-1-yl)phenyl]-1-phenyl-1,2,4-triazol-3-amine] | 10 to 100 | ≤ 1
Cc1cc(Nc2ncn(-c3cncc(C)n3)n2)cc(N2CCN(C3CC3)CC2)c1 [Compound 420, N-[3-(4-cyclopropylpiperazin-1-yl)-5-methyl-phenyl]-1-(6-methylpyrazin-2-yl)-1,2,4-triazol-3-amine] | 1 to 10 | 1 to 10
Cc1cc(Nc2ncn(-c3cc(F)cc(F)c3)n2)cc(N2CCN(CC(F)(F)F)CC2)c1 [Compound 421, 1-(3,5-difluorophenyl)-N-[3-methyl-5-[4-(2,2,2-trifluoroethyl)piperazin-1-yl]phenyl]-1,2,4-triazol-3-amine] | 100 to 1000 | 100 to 1000
COC(=O)N1CCN(c2cc(C)cc(Nc3ncn(-c4cc(F)cc(F)c4)n3)c2)CC1 [Compound 422, methyl 4-[3-[[1-(3,5-difluorophenyl)-1,2,4-triazol-3-yl]amino]-5-methyl-phenyl]piperazine-1-carboxylate] | ≤ 1 | 100 to 1000
Cc1cc(Nc2ncn(-c3ccccc3)n2)cc(N2C[C@@H](C)N(C)[C@@H](C)C2)c1 [Compound 423, N-[3-methyl-5-[(3R,5S)-3,4,5-trimethylpiperazin-1-yl]phenyl]-1-phenyl-1,2,4-triazol-3-amine] | 100 to 1000 | ≤ 1
Cc1cc(Nc2ncn(-c3cc(C)cc(F)c3)n2)cc(N2CCN(C)CC2)c1 [Compound 424, 1-(3-fluoro-5-methyl-phenyl)-N-[3-methyl-5-(4-methylpiperazin-1-yl)phenyl]-1,2,4-triazol-3-amine] | 100 to 1000 | ≤ 1
Cc1cc(N2CCN(C3COC3)CC2)cc(Nc2ncn(-c3cc(F)cc(F)c3)n2)c1C [Compound 425, 1-(3,5-difluorophenyl)-N-[2,3-dimethyl-5-[4-(oxetan-3-yl)piperazin-1-yl]phenyl]-1,2,4-triazol-3-amine] | 1 to 10 | 100 to 1000
Fc1cc(F)cc(-n2cnc(Nc3cc(Cl)cc(N4CCOCC4)c3)n2)c1 [Compound 426, N-(3-chloro-5-morpholino-phenyl)-1-(3,5-difluorophenyl)-1,2,4-triazol-3-amine] | 1000 to 10000 | 1000 to 10000
Cc1cc(Nc2ncn(-c3cncc(F)c3)n2)cc(N2CCOCC2)c1 [Compound 427, 1-(5-fluoro-3-pyridyl)-N-(3-methyl-5-morpholino-phenyl)-1,2,4-triazol-3-amine] | 100 to 1000 | 100 to 1000
Cc1cc(Nc2ncn(-c3ccccc3Cl)n2)cc(N2CCN(C)CC2)c1 [Compound 428, 1-(2-chlorophenyl)-N-[3-methyl-5-(4-methylpiperazin-1-yl)phenyl]-1,2,4-triazol-3-amine] | 1 to 10 | 10 to 100
Cc1cc(Nc2ncn(-c3cc(F)cc(F)c3)n2)cc(C2CCCNC2)c1 (stereo not drawn) [Compound 429, 1-(3,5-difluorophenyl)-N-[3-methyl-5-(3-piperidyl)phenyl]-1,2,4-triazol-3-amine] | 1000 to 10000 | ≤ 1
Cc1cc(Nc2ncn(-c3ccccc3)n2)cc(N2CCC(F)CC2)n1 [Compound 430, 2-(4-fluoro-1-piperidyl)-6-methyl-N-(1-phenyl-1,2,4-triazol-3-yl)pyridin-4-amine] | 100 to 1000 | ≤ 1
Cc1cc(Nc2ncn(-c3ccccc3)n2)cc(N2CCN(CC3(C)COC3)CC2)c1 [Compound 431, N-[3-methyl-5-[4-[(3-methyloxetan-3-yl)methyl]piperazin-1-yl]phenyl]-1-phenyl-1,2,4-triazol-3-amine] | 1 to 10 | ≤ 1
CCc1cc(Nc2ncn(-c3cccc(OC)c3)n2)cc(N2CCN(C3COC3)CC2)c1 [Compound 432, N-[3-ethyl-5-[4-(oxetan-3-yl)piperazin-1-yl]phenyl]-1-(3-methoxyphenyl)-1,2,4-triazol-3-amine] | 100 to 1000 | 1 to 10
Cc1cc(Nc2ncn(-c3cc(F)cc(F)c3)n2)cc(OC2CCN(C3COC3)CC2)c1 [Compound 433, 1-(3,5-difluorophenyl)-N-[3-methyl-5-[[1-(oxetan-3-yl)-4-piperidyl]oxy]phenyl]-1,2,4-triazol-3-amine] | 100 to 1000 | 100 to 1000
Cc1cc(Nc2ncn(-c3ccccc3)n2)cc(N2CCN(C3CCOC3)CC2)c1 (stereo not drawn) [Compound 434, N-[3-methyl-5-(4-tetrahydrofuran-3-ylpiperazin-1-yl)phenyl]-1-phenyl-1,2,4-triazol-3-amine] | 1000 to 10000 | 1000 to 10000
Fc1cc(Nc2ncn(-c3cccc(F)c3)n2)cc(N2CCCC2)c1 [Compound 435, 1-(3-fluorophenyl)-N-(3-fluoro-5-pyrrolidin-1-yl-phenyl)-1,2,4-triazol-3-amine] | 100 to 1000 | 100 to 1000
Cc1cc(Nc2ncn(-c3ccccc3)n2)cc(N2CCN(C3(C)COC3)CC2)c1 [Compound 436, N-[3-methyl-5-[4-(3-methyloxetan-3-yl)piperazin-1-yl]phenyl]-1-phenyl-1,2,4-triazol-3-amine] | 1000 to 10000 | 100 to 1000
Cc1cc(Nc2ncn(-c3cc(F)ccc3F)n2)cc(N2CCN(C3COC3)CC2)c1 [Compound 437, 1-(2,5-difluorophenyl)-N-[3-methyl-5-[4-(oxetan-3-yl)piperazin-1-yl]phenyl]-1,2,4-triazol-3-amine] | 10 to 100 | 10 to 100
